Test results: patent US20090035298A1 (priority 2007, published 2009)
“And” between values parts separate entries of the source, which are not always exact repeats. Equal values may be shown once. Read-outs that look alike come from different tables or passages of the source. Where no end group is shown, it is not given here.

Experiments:
[1] = system: hippocampal ISF Aβ levels; format: in vivo, Tg2576 mice; details: for Effect on ISF Aβ levels versus vehicle treated mice: 50 mg/kg intraperitoneal, n=8 per group; for Effect on ISF Aβ levels versus vehicle treated mice / ISF Aβ levels, % of baseline by 12 hours: 3-4 month old Tg2576 mice; for ISF Aβ levels, % of baseline by 12 hours: n=5
[2] = system: neuronal activity in the hippocampus; design: species or system Tg2576 mice; details: mouse, in vivo

C[C@]12C[C@H](O)[C@H]3[C@@H](CCC4=CC(=O)CC[C@@]43C)[C@@H]1CC[C@@H]2C(=O)CO [CORT, Corticosterone]
Effect on ISF Aβ levels versus vehicle treated mice [1]: no difference | Effect on ISF Aβ levels versus vehicle treated mice ([1]; listed as Corticosterone): did not alter

NC1=N[C@H](O)[C@H]2[C@H]3O[C@]4(O)O[C@@H]([C@@H](O)[C@@]2(N1)[C@@H]4O)[C@]3(O)CO [TTX, Tetrodotoxin]
Change in ISF Aβ levels on 3 hours restraint stress given 8 hours after TTX treatment, compared to TTX-alone controls ([1]; mouse, in vivo): no significant change | Decrease of ISF Aβ levels over 16 hours compared to baseline ([1]; mouse, in vivo): ~60% | ISF Aβ levels for an additional 12 hours in the presence of TTX ([1]; mouse, in vivo): remained low | ISF Aβ levels, % of baseline by 17 hours from drug treatment ([1]; mouse, in vivo): 58.5% | Effect on neuronal activity in the hippocampus [2]: almost completely blocked

CRF (SEEPPISLDLTFHLLREVLEMARAEQLAQQAHSNRKLMEII; ends and bridges not checked; UniProt P06850 154-194, looked up)
ISF Aβ levels, % of baseline by 12 hours ([1]; 100 nM by reverse microdialysis in hippocampus): 138.3±7.027% and 138.3% | Time of increase of ISF Aβ levels after drug infusion ([1]; 100 nM in the microdialysis fluid): 3 h | ISF Aβ levels, % of baseline by 12 hours ([1]; 200 nM by reverse microdialysis in hippocampus): 171.9±17.83% and 171.9% | Time of increase of ISF Aβ levels after drug infusion ([1]; 200 nM in the microdialysis fluid): immediately | Dose dependence of increase in ISF Aβ levels ([1]; 100 and 200 nM by reverse microdialysis): dose-dependent manner
